From patent publication US8703825B2, “Compounds, use thereof as medicaments, and method of preparation thereof” (Universite de Lorraine, priority 2008, dated 2014)
Converted amounts (≈) assume the structure as drawn. “Also recorded” adds a separate entry of the source. Like-named read-outs stand apart in the source and are kept apart here.

Experiments:
[1] = system: Pseudomonas aeruginosa ATCC 27853; assay: MIC by microdilution in liquid medium (CLSI / CA-SFM); format: cell-based; details: P. aeruginosa ATCC 27853; HaCaT cell lines, 24 h exposure
[2] = system: HaCaT cells (human keratinocytes); assay: Cellular viability test (MTT test); format: cell-based; details: read-out: IC50 viability test (with MTT)
Text: The eukaryotic cells used in our study are HaCaT cells (human keratinocytes), which were kindly supplied by the Pierre Fabre Institute (Toulouse, France); and MRC-5 cells (human embryonic fibroblasts), which were obtained from the company BioMérieux (Lyons, France). These cells are cultivated in DMEM (“Dulbecco's modified Eagle's medium”, Invitrogen 61965) for the HaCaT cells, and MEM (“modified Eagle's medium”, Invitrogen 41090); 10% of fetal calf serum (FCS, Invitrogen, 10270, Batch 40Q5150K) in a humid chamber at 37° C., under 5% CO2. The HaCaT and MRC-5 cells were seeded at 10^4 cells/well in 96-well plates (Sarstedt 831835). After 48 h of growth, the culture medium is withdrawn and replaced with the various “test” solutions (volume=100 μL). After contact time of 24, 48 and/or 168 H,the viability or cytotoxicity tests are carried out.
a) Cellular Viability Tests (MTT Test)
In order to evaluate the effect of the various compounds tested on the viability of HaCaT and MRC-5 cells, the MTT technique (3-[4,5-dimethylthiazol-2-yl]-2,5-diphenyltetrazolium bromide; MTT, Aldrich, 135038), described by Mosmann [Mosmann T. Rapid colorimetric assay for cellular growth and survival: application to proliferation and cytotoxicity assays. J Immunol Methods. 1983; 65: 55-63] and modified by Grare et al. [Grare M, Mourer M, Fontanay S, Regnouf-de-Vains J B, Finance C, Duval R E. In vitro activity of para-guanidinoethylcalix[4]arene against susceptible and antibiotic-resistant Gram-negative and Gram-positive bacteria. J Antimicrob Chemother. 2007; 60: 575-81], was used.
It is based on the reduction of yellow tetrazolium salts to purple crystals of formazan, mainly by mitochondrial dehydrogenases. The quantity of formazan formed is proportional to the number of live cells. After the contact times of 24, 48 and/or 168 h with the different concentrations of the test molecules, 10 nI, of MTT (at 5 mg/mL) is added to each well and the plates are placed at 37° C. After incubation for 4 H,the insoluble crystals of formazan that have formed are dissolved by adding 100 μL SDS to each well. The absorbance is measured at 540 nm with a reference wavelength at 690 nm, using an ELISA plate reader (Multiskan E X, Thermo Electron Corporation, France). The results are the mean of the values obtained for 8 wells per concentration and per unit time. Each experiment was carried out 3 times.

[3] = system: Gram-positive and Gram-negative bacteria (reference strains and clinical isolates); assay: Antibacterial activity overall (MIC determination); format: cell-based; details: summary of MIC results
Text: According to the joint recommendations: • of the “Comite de l′Antibiogramme de la Société Française de Microbiologie” (Antibiogram Committee of the French Society of Microbiology) (CA-SFM) [CA-SFM. Communique 2007 (Edition of January 2007). http://www.sfm.asso.fr] and, • of the “Clinical and Laboratory Standards Institute” (CLSI, formerly “National Committee for Clinical Laboratory Standards” or NCCLS) [NCCLS. 2003. Methods for dilution antimicrobial susceptibility tests for bacteria that grow aerobically; approved standard M7-A6, 6th ed. National Committee for Clinical Laboratory Standards, Wayne, Pa., USA.], five reference bacterial strains were used for the study: Escherichia coli ATCC 25922, Pseudomonas aeruginosa ATCC 27853, Staphylococcus aureus ATCC 25923 & ATCC 29213 and Enterococcus faecalis ATCC 29212.
The study also included 5 clinical isolates, obtained from rectal samples and/or from haemoculture: • […] E. coli (EcR1), • methicillin-resistant S. aureus (mecA gene) (SaR1), • vancomycin-resistant E. faecium (vanB gene) (EfR1), • E. faecalis resistant to teicoplanin and to vancomycin (vanA gene) (EfR2), and • P. aeruginosa overexpressing an efflux pump (PaRl).
Procedure for determining the Minimum Inhibitory Concentration (MIC)
The minimum inhibitory concentrations (MIC) were determined by the standardized method of microdilution in liquid medium (96-well microplate, U-shaped bottom, Greiner), in Mueller-Hinton broth, with a final inoculum of 10^5-10^6 CFU/mL, depending on the bacterial species, in accordance with the recommendations of the CLSI.
For the determination of MIC, bacterial suspensions are prepared from an isolated colony, taken from a Mueller-Hinton agar, taken up in 5 mL of Mueller-Hinton broth. After 24 h of growth, the bacterial suspensions are diluted in sterile distilled water in order to obtain an inoculum of 10^5-10^6 CFU/mL. The purity of the bacterial suspensions is tested by isolation on agar and Gram staining.
The results are the mean value of 4 independent experiments.

[4] = system: HaCaT and/or MRC5 eukaryotic cells; format: cell-based, human
Text: The eukaryotic cells used in our study are HaCaT cells (human keratinocytes), which were kindly supplied by the Pierre Fabre Institute (Toulouse, France); and MRC-5 cells (human embryonic fibroblasts), which were obtained from the company BioMérieux (Lyons, France). These cells are cultivated in DMEM (“Dulbecco's modified Eagle's medium”, Invitrogen 61965) for the HaCaT cells, and MEM (“modified Eagle's medium”, Invitrogen 41090); 10% of fetal calf serum (FCS, Invitrogen, 10270, Batch 40Q5150K) in a humid chamber at 37° C., under 5% CO2. The HaCaT and MRC-5 cells were seeded at 10^4 cells/well in 96-well plates (Sarstedt 831835). […]
It is based on the reduction of yellow tetrazolium salts to purple crystals of formazan, mainly by mitochondrial dehydrogenases. The quantity of formazan formed is proportional to the number of live cells. […] The absorbance is measured at 540 nm with a reference wavelength at 690 nm, using an ELISA plate reader (Multiskan E X, Thermo Electron Corporation, France). […]
The cytotoxicity test is based on incorporation of a vital dye, Neutral Red, in the lysosomes of the viable cells, after exposure of the cells to different concentrations of the test molecules. The quantity of dye, after extraction from the lysosomes, is quantified by means of a spectrophotometer and compared with that obtained in the case of “control” cells, not exposed to the test molecules. […]

| Structure (SMILES) | Selectivity index (SI=IC50/MIC) [1] | IC50 ([2]; 24 h) [µg/mL] | IC50 ([2]; 48 h) [µg/mL] | IC50 ([2]; 168 h) [µg/mL] | antibacterial activity (in words) [3] | effect on viability and cytotoxicity (in words) [4] |
| --- | --- | --- | --- | --- | --- | --- |
| [H]/N=C(\N/C(=N/[H])NCCCCCCNC(=N)NC(=N)Nc1ccc(Cl)cc1)Nc1ccc(Cl)cc1 [CHX, chlorhexidine] | 2-4 | 8 to 16 (≈ 15.8 to 31.7 µM) | 4 to 8 (≈ 7.91 to 15.8 µM) | 2 to 4 (≈ 3.96 to 7.91 µM) | broad-spectrum antibacterial activity | – |
| N=C(N)c1ccc(OCCCCCCOc2ccc(C(=N)N)cc2)cc1 [HX, hexamidine] | 1-2 | 32 to 64 (≈ 90.3 to 181 µM) | 16 to 32 (≈ 45.1 to 90.3 µM) | 4 to 8 (≈ 11.3 to 22.6 µM) | – | – |
| N=C(N)NCCc1ccc(OCCCCCCOc2ccc(CCNC(=N)N)cc2)cc1 [compound 6, 1,6-bis(4-(2-guanidinoethyl)phenoxy)hexane] | 0.25-0.5 | 4 to 8 (≈ 9.08 to 18.2 µM) | 4 to 8 (≈ 9.08 to 18.2 µM) | 1 to 2 (≈ 2.27 to 4.54 µM) | maintains comparable activity on the clinical isolates; also recorded: better overall than hexamidine and is comparable to that of chlorhexidine | slightly less pronounced effect on viability and cytotoxicity |
